From publication PMC12566511, “The Evaluation of (1R,4R,7R,10R)-α,α′,α″,α‴-Tetramethyl-1,4,7,10-tetraazacyclododecane-1,4,7,10-tetraacetic Acid (DOTMA) as a Chelator for Zirconium-89” (Molecules, 2025)

Assay: Biodistribution studies in non-tumor-bearing, normal mice
Assay type: in vivo, female NIH Swiss mice
Conditions: for Biodistribution (%ID/g) Blood / Biodistribution (%ID/g) Bone / Biodistribution (%ID/g) Fat / Biodistribution (%ID/g) Heart / Biodistribution (%ID/g) Kidney / Biodistribution (%ID/g) Large intestine / Biodistribution (%ID/g) Liver / Biodistribution (%ID/g) Lung / Biodistribution (%ID/g) Muscle / Biodistribution (%ID/g) Pancreas / Biodistribution (%ID/g) Small intestine / Biodistribution (%ID/g) Spleen / Biodistribution (%ID/g) Stomach: tail vein, n = 6
Protocol: Female NIH Swiss mice (6–8 weeks old) were purchased from Inotiv, Lafayette, IN, USA. All animals were acclimated to a 12 h light/dark cycle and received food and water ad libitum for 5 days before any manipulations were performed. All animals were checked by veterinary staff daily to ensure well-being and proper environment and to monitor for signs of distress. Clinical signs of distress in laboratory rodents include decreased activity, pilo-erection, un-groomed appearance, excessive licking and scratching, self-mutilation, abnormal stance, hunched appearance, rapid or shallow respiration, grunting, dilated pupils, aggressiveness towards handler, high-pitched vocalizations, change in feeding activity, and attempts to separate from group. In the event of clinical distress, animals were euthanized after consulting the on-call veterinarian. To minimize suffering during the tail vain injection, animals were kept under deep isoflurane anesthesia. At the end point of the study, animals were anesthetized with isoflurane and were euthanized by cervical dislocation, which is consistent with the recommendations of the American Veterinary Medical Association Guidelines on Euthanasia.
Biodistribution studies were conducted using a modified literature procedure. Briefly, female NIH Swiss mice (6–8 weeks old, n = 6/cohort; 30 animals total) were injected with [^89Zr]Zr-DOTMA (0.55 MBq (15 μCi)/mouse) via the tail vein and sacrificed at 2, 4, 24, 48, and 72 h p.i. Organs and tissues of interest were excised, weighed, and counted on a gamma counter. The percent injected dose per gram (%ID/g) was calculated by comparison to a weighed, counted standard for each group.

CC(C(=O)[O-])N1CCN(C(C)C(=O)[O-])CCN(C(C)C(=O)[O-])CCN(C(C)C(=O)[O-])CC1.[89Zr+4] (centres unmarked) [[^89Zr]Zr-DOTMA]
Biodistribution (%ID/g) Blood (2 h p.i.): 0.011 ± 0.001 %ID/g | Biodistribution (%ID/g) Bone (2 h p.i.): 0.032 ± 0.006 %ID/g | Biodistribution (%ID/g) Fat (2 h p.i.): 0.007 ± 0.003 %ID/g | Biodistribution (%ID/g) Heart (2 h p.i.): 0.021 ± 0.003 %ID/g | Biodistribution (%ID/g) Kidney (2 h p.i.): 1.053 ± 0.071 %ID/g | Biodistribution (%ID/g) Large intestine (2 h p.i.): 0.523 ± 0.112 %ID/g | Biodistribution (%ID/g) Liver (2 h p.i.): 0.238 ± 0.020 %ID/g | Biodistribution (%ID/g) Lung (2 h p.i.): 0.071 ± 0.006 %ID/g | Biodistribution (%ID/g) Muscle (2 h p.i.): 0.008 ± 0.003 %ID/g | Biodistribution (%ID/g) Pancreas (2 h p.i.): 0.011 ± 0.003 %ID/g | Biodistribution (%ID/g) Small intestine (2 h p.i.): 0.229 ± 0.039 %ID/g | Biodistribution (%ID/g) Spleen (2 h p.i.): 0.078 ± 0.008 %ID/g | Biodistribution (%ID/g) Stomach (2 h p.i.): 0.069 ± 0.008 %ID/g | Biodistribution (%ID/g) Blood (4 h p.i.): 0.008 ± 0.001 %ID/g | Biodistribution (%ID/g) Bone (4 h p.i.): 0.024 ± 0.004 %ID/g | Biodistribution (%ID/g) Fat (4 h p.i.): 0.006 ± 0.002 %ID/g | Biodistribution (%ID/g) Heart (4 h p.i.): 0.019 ± 0.004 %ID/g | Biodistribution (%ID/g) Kidney (4 h p.i.): 0.689 ± 0.086 %ID/g | Biodistribution (%ID/g) Large intestine (4 h p.i.): 0.632 ± 0.088 %ID/g | Biodistribution (%ID/g) Liver (4 h p.i.): 0.123 ± 0.017 %ID/g | Biodistribution (%ID/g) Lung (4 h p.i.): 0.060 ± 0.005 %ID/g | Biodistribution (%ID/g) Muscle (4 h p.i.): 0.004 ± 0.002 %ID/g | Biodistribution (%ID/g) Pancreas (4 h p.i.): 0.010 ± 0.004 %ID/g | Biodistribution (%ID/g) Small intestine (4 h p.i.): 0.080 ± 0.007 %ID/g | Biodistribution (%ID/g) Spleen (4 h p.i.): 0.076 ± 0.004 %ID/g | Biodistribution (%ID/g) Stomach (4 h p.i.): 0.013 ± 0.005 %ID/g | Biodistribution (%ID/g) Blood (24 h p.i.): 0.005 ± 0.001 %ID/g | Biodistribution (%ID/g) Bone (24 h p.i.): 0.026 ± 0.004 %ID/g | Biodistribution (%ID/g) Fat (24 h p.i.): 0.005 ± 0.002 %ID/g | Biodistribution (%ID/g) Heart (24 h p.i.): 0.009 ± 0.002 %ID/g | Biodistribution (%ID/g) Kidney (24 h p.i.): 0.077 ± 0.009 %ID/g | Biodistribution (%ID/g) Large intestine (24 h p.i.): 0.022 ± 0.008 %ID/g | Biodistribution (%ID/g) Liver (24 h p.i.): 0.018 ± 0.002 %ID/g | Biodistribution (%ID/g) Lung (24 h p.i.): 0.033 ± 0.004 %ID/g | Biodistribution (%ID/g) Muscle (24 h p.i.): 0.001 ± 0.000 %ID/g | Biodistribution (%ID/g) Pancreas (24 h p.i.): 0.003 ± 0.001 %ID/g | Biodistribution (%ID/g) Small intestine (24 h p.i.): 0.007 ± 0.001 %ID/g | Biodistribution (%ID/g) Spleen (24 h p.i.): 0.044 ± 0.005 %ID/g | Biodistribution (%ID/g) Stomach (24 h p.i.): 0.005 ± 0.002 %ID/g | Biodistribution (%ID/g) Blood (48 h p.i.): 0.004 ± 0.001 %ID/g | Biodistribution (%ID/g) Bone (48 h p.i.): 0.023 ± 0.004 %ID/g | Biodistribution (%ID/g) Fat (48 h p.i.): 0.002 ± 0.001 %ID/g | Biodistribution (%ID/g) Heart (48 h p.i.): 0.004 ± 0.002 %ID/g | Biodistribution (%ID/g) Kidney (48 h p.i.): 0.021 ± 0.003 %ID/g | Biodistribution (%ID/g) Large intestine (48 h p.i.): 0.003 ± 0.001 %ID/g | Biodistribution (%ID/g) Liver (48 h p.i.): 0.008 ± 0.001 %ID/g | Biodistribution (%ID/g) Lung (48 h p.i.): 0.015 ± 0.002 %ID/g | Biodistribution (%ID/g) Muscle (48 h p.i.): 0.001 ± 0.001 %ID/g | Biodistribution (%ID/g) Pancreas (48 h p.i.): 0.001 ± 0.001 %ID/g | Biodistribution (%ID/g) Small intestine (48 h p.i.): 0.002 ± 0.000 %ID/g | Biodistribution (%ID/g) Spleen (48 h p.i.): 0.024 ± 0.005 %ID/g | Biodistribution (%ID/g) Stomach (48 h p.i.): 0.001 ± 0.000 %ID/g | fold less radioactivity associated with liver tissue compared to [^89Zr]Zr-DFO (72 h p.i.): 9 fold | fold less radioactivity in the bone tissue than [^89Zr]Zr-DFO (72 h p.i.): 3 fold | fold less radioactivity retained in the kidney than [^89Zr]Zr-DFO (72 h p.i.): 69 fold | Biodistribution (%ID/g) Blood (72 h p.i.): 0.003 ± 0.001 %ID/g | Biodistribution (%ID/g) Bone (72 h p.i.): 0.023 ± 0.003 %ID/g | Biodistribution (%ID/g) Fat (72 h p.i.): 0.001 ± 0.001 %ID/g | Biodistribution (%ID/g) Heart (72 h p.i.): 0.004 ± 0.001 %ID/g | Biodistribution (%ID/g) Kidney (72 h p.i.): 0.010 ± 0.002 %ID/g | Biodistribution (%ID/g) Large intestine (72 h p.i.): 0.003 ± 0.001 %ID/g | Biodistribution (%ID/g) Liver (72 h p.i.): 0.007 ± 0.001 %ID/g | Biodistribution (%ID/g) Lung (72 h p.i.): 0.013 ± 0.003 %ID/g | Biodistribution (%ID/g) Muscle (72 h p.i.): 0.001 ± 0.001 %ID/g | Biodistribution (%ID/g) Pancreas (72 h p.i.): 0.001 ± 0.001 %ID/g | Biodistribution (%ID/g) Small intestine (72 h p.i.): 0.001 ± 0.000 %ID/g | Biodistribution (%ID/g) Spleen (72 h p.i.): 0.026 ± 0.002 %ID/g | Biodistribution (%ID/g) Stomach (72 h p.i.): 0.001 ± 0.000 %ID/g
